Measurements: PubChem BioAssay AID256 (DTP/NCI, 2004)
“And” between values parts separate entries of the source, which are not always exact repeats. Equal values may be shown once. Inconclusive results and toxic doses are left out. The calls were made as follows: active = survival T/C of 150% or more; inactive = T/C below 125% in these data.

Test system: CD2F1 mice, L1210 leukemia ip, survival T/C
Assay: NCI In Vivo Anticancer Drug Screen. Data for tumor model L1210 Leukemia (intraperitoneal) in CD2F1 (CDF1) mice
Conditions: endpoint: mean survival time, higher = longer survival
In short: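 Implant tumor; dose compound or vehicle; measure endpoint in both groups; report treated divided by control.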

Measured: T/C

Cc1cc(NCCCCCCNc2cc(C)nc3ccc(N)cc23)c2cc(N)ccc2n1
inactive: dose: 0.16 mg/kg/injection, schedule: Q08HX006 (iv), vehicle: water 103 % of control | dose: 0.31 mg/kg/injection, schedule: Q08HX006 (iv), vehicle: water 104 % of control | dose: 0.4 mg/kg/injection, schedule: Q08HX009 (ip), vehicle: water 105 % of control | dose: 0.6 mg/kg/injection, schedule: Q01DX009 (ip), vehicle: water 98 % of control | dose: 0.6 mg/kg/injection, schedule: Q08HX009 (iv), vehicle: water 88 % of control | dose: 0.63 mg/kg/injection, schedule: Q08HX006 (iv), vehicle: water 92 % of control | dose: 0.8 mg/kg/injection, schedule: Q08HX009 (ip), vehicle: water 101 % of control | dose: 1.1 mg/kg/injection, schedule: Q01DX005 (iv), vehicle: water 104 % of control | dose: 1.2 mg/kg/injection, schedule: Q01DX009 (ip), vehicle: water 97 % of control | dose: 1.25 mg/kg/injection, schedule: Q08HX006 (iv), vehicle: water 103 % of control | dose: 1.3 mg/kg/injection, schedule: Q08HX009 (iv), vehicle: water 94 % of control | dose: 1.4 mg/kg/injection, schedule: Q01DX005 (iv), vehicle: water 98 % of control | dose: 1.56 mg/kg/injection, schedule: Q01DX009 (ip), vehicle: water 103 % of control and 111 % of control | dose: 1.6 mg/kg/injection, schedule: Q08HX009 (ip), vehicle: water 104 % of control | dose: 1.9 mg/kg/injection, schedule: Q01DX005 (iv), vehicle: water 101 % of control | dose: 1.9 mg/kg/injection, schedule: Q08HX009 (iv), vehicle: saline with Tween-80 92 % of control | dose: 2.4 mg/kg/injection, schedule: Q01DX009 (ip), vehicle: saline with Tween-80 114 % of control and 116 % of control | dose: 2.4 mg/kg/injection, schedule: Q01DX009 (ip), vehicle: water 111 % of control | dose: 2.5 mg/kg/injection, schedule: Q01DX005 (iv), vehicle: water 103 % of control | dose: 2.5 mg/kg/injection, schedule: Q08HX006 (iv), vehicle: water 105 % of control | dose: 2.5 mg/kg/injection, schedule: Q08HX009 (ip), vehicle: saline with Tween-80 119 % of control | dose: 2.5 mg/kg/injection, schedule: Q08HX009 (iv), vehicle: water 93 % of control | dose: 2.53 mg/kg/injection, schedule: Q01DX005 (iv), vehicle: water 95 % of control | dose: 2.58 mg/kg/injection, schedule: Q01DX005 (iv), vehicle: saline with Tween-80 101 % of control | dose: 3.0 mg/kg/injection, schedule: Q01DX009 (ip), vehicle: water 95 % of control and 107 % of control | dose: 3.13 mg/kg/injection, schedule: Q01DX009 (ip), vehicle: water 113 % of control and 124 % of control | dose: 3.2 mg/kg/injection, schedule: Q08HX009 (ip), vehicle: water 112 % of control | dose: 3.38 mg/kg/injection, schedule: Q01DX005 (iv), vehicle: water 100 % of control | dose: 3.38 mg/kg/injection, schedule: Q01DX009 (sc), vehicle: water 98 % of control | dose: 3.4 mg/kg/injection, schedule: Q01DX005 (iv), vehicle: water 101 % of control | dose: 3.44 mg/kg/injection, schedule: Q01DX009 (ip), vehicle: saline with Tween-80 114 % of control | dose: 3.44 mg/kg/injection, schedule: Q01DX009 (sc), vehicle: saline with Tween-80 100 % of control | dose: 3.7 mg/kg/injection, schedule: Q01DX009 (ip), vehicle: saline with Tween-80 117 % of control | dose: 3.8 mg/kg/injection, schedule: Q08HX006 (iv), vehicle: saline with Tween-80 101 % of control | dose: 3.8 mg/kg/injection, schedule: Q08HX009 (iv), vehicle: saline with Tween-80 88 % of control | dose: 4.51 mg/kg/injection, schedule: Q01DX009 (ip), vehicle: water 113 % of control | dose: 4.59 mg/kg/injection, schedule: Q01DX009 (ip), vehicle: saline with Tween-80 115 % of control | dose: 4.59 mg/kg/injection, schedule: Q01DX009 (sc), vehicle: saline with Tween-80 96 % of control | dose: 4.7 mg/kg/injection, schedule: Q01DX009 (ip), vehicle: saline with Tween-80 121 % of control | dose: 4.8 mg/kg/injection, schedule: Q01DX009 (ip), vehicle: water 114 % of control | dose: 5.0 mg/kg/injection, schedule: Q08HX006 (iv), vehicle: water 100 % of control | dose: 5.3 mg/kg/injection, schedule: Q01DX009 (ip), vehicle: water 114 % of control and 97 % of control | dose: 6.12 mg/kg/injection, schedule: Q01DX005 (iv), vehicle: saline with Tween-80 97 % of control | dose: 6.12 mg/kg/injection, schedule: Q01DX009 (ip), vehicle: saline with Tween-80 119 % of control | dose: 6.12 mg/kg/injection, schedule: Q01DX009 (sc), vehicle: saline with Tween-80 97 % of control
